pIC50: −log10 of the molar value.

Experimental findings from ChEMBL document CHEMBL4265947, “Conformation impacts on the bioactivities of SMART analogues” (Eur J Med Chem, 2018) are described below.

One series concerns HT-1080. Description: Antiproliferative activity against human HT1080 cells after 72 hrs by MTT assay. In kind it is functional, cell-based. Particulars: HT-1080, 72 h. (In general: Tetrazolium assays rely on reduction of a dye to a coloured formazan, in cell work by metabolically active cells.)
Another series deals with SGC-7901. The experiment in a line: Antiproliferative activity against human SGC7901 cells after 72 hrs by MTT assay. The series is classed as functional, cell-based. The conditions noted are these: SGC-7901, 72 h.
A further series concerns A549. Description: Antiproliferative activity against human A549 cells after 72 hrs by MTT assay. Particulars: A549, 72 h. The series is classed as functional, cell-based.
Series [1] in a line: (§1) Inhibition of porcine tubulin polymerization preincubated for 1 min and measured for 82 mins by fluorescence assay. Further details: species or system Sus scrofa.
Series [2] in a line: Selectivity index, ratio of IC50 for mouse L929 cells to IC50 for human A549 cells. The series is classed as toxicity. The conditions noted are these: L929 cells versus A549 cells, read-out: Ratio IC50.
In another series the test system is L929. The experiment in a line: Antiproliferative activity against mouse L929 cells after 72 hrs by MTT assay. The series is classed as cell-based. The conditions noted are these: L929, 72 h.
Series [3] in a line: Selectivity index, ratio of IC50 for mouse L929 cells to IC50 for human HT1080 cells. The series is classed as toxicity. Particulars: L929 cells versus HT1080 cells, read-out: Ratio IC50.
A short description of series [4]: Selectivity index, ratio of IC50 for mouse L929 cells to IC50 for human SGC7901 cells. In kind it is toxicity. Particulars: L929 cells versus SGC7901 cells, read-out: Ratio IC50.
The species named for a further series is Sus scrofa. The description is as §1.

As usually defined, the pIC50 is the IC50 on a negative log10 scale, so that one unit is a factor of ten. A low value points to a high IC50. For the compound `COc1cc(C(=O)c2nnc(-c3ccc(C)cc3)s2)cc(OC)c1OC`, the pIC50 with HT-1080 is under 4.00; in the series on SGC-7901 it was under 4.00; in the series with A549, 4.45; in series [1], under 4.00.
As for `COc1cc2c(c(OC)c1OC)-c1ccc(OC)c(=O)cc1[C@@H](NC(C)=O)CC2` [COLCHICINE], the selectivity ratio stood at 7.4 in series [2], 24 in series [3] and 7.5 in series [4]. Further, the pIC50 in the series with L929 is 6.00; in the series with HT-1080 it was 7.38; in the series on SGC-7901 it was 6.87; in the series on A549, 6.86.
For `COc1ccc(/C=C\c2cc(OC)c(OC)c(OC)c2)cc1O` [COMBRETASTATIN A4], the pIC50 in the series with L929 was 6.09; with SGC-7901 it was 7.92; with A549, 7.80.
For the compound `COc1cc(C(=O)c2nc(-c3ccc(C)cc3)n[nH]2)cc(OC)c1OC`, the selectivity ratio in [2] worked out at 39.8; in series [3] it was 65.5; in [4] it was 112. The negative logarithm of the IC50 (pIC50) is 4.37 in the series with L929; 6.19 in the series on HT-1080; 6.42 in the series with SGC-7901; 5.97 in the series on A549; 5.11 in series [1]. Further, the inhibition entry in the series listed under Sus scrofa was “Dose-dependent effect”.
For the compound `COc1cc(C(=O)c2nnc(-c3ccc(C)cc3)o2)cc(OC)c1OC`, the pIC50 was under 4.00 in the series with HT-1080, 5.17 in the series with SGC-7901 and 4.82 with A549.
Take `COc1cc(C(=O)c2csc(-c3ccccc3)n2)cc(OC)c1OC`: the pIC50 with HT-1080 is 6.82.
